Reference: PubChem BioAssay (NCI)
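These data come from cells grown in 96-well plates and exposed to compound for 48 hours at five concentrations. TGI denotes the concentration required for complete inhibition of growth.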

What was measured:
Assay in all cases: inhibition of tumour cell growth, NCI panel, 48 h
786-0 renal = test system: 786-0 renal
U251 CNS = test system: U251 CNS
MALME-3M melanoma = test system: MALME-3M melanoma
SNB-19 CNS = test system: SNB-19 CNS
HOP-92 NSCLC = test system: HOP-92 NSCLC
OVCAR-3 ovarian = test system: OVCAR-3 ovarian
ACHN renal = test system: ACHN renal
CCRF-CEM leukemia = test system: CCRF-CEM leukemia
RXF 393 renal = test system: RXF 393 renal
HT29 colon = test system: HT29 colon
SK-MEL-28 melanoma = test system: SK-MEL-28 melanoma
K-562 leukemia = test system: K-562 leukemia
MDA-MB-231 breast = test system: MDA-MB-231 breast
HCT-116 colon = test system: HCT-116 colon
NCI-H226 lung = test system: NCI-H226 lung
IGROV1 ovarian = test system: IGROV1 ovarian
NCI-H460 lung = test system: NCI-H460 lung
RPMI-8226 leukemia = test system: RPMI-8226 leukemia
OVCAR-5 ovarian = test system: OVCAR-5 ovarian

Row | Compound | TGI (786-0 renal) [µM] | TGI (U251 CNS) [µM] | TGI (MALME-3M melanoma) [µM] | TGI (SNB-19 CNS) [µM] | TGI (HOP-92 NSCLC) [µM] | TGI (OVCAR-3 ovarian) [µM] | TGI (ACHN renal) [µM] | TGI (CCRF-CEM leukemia) [µM] | TGI (RXF 393 renal) [µM] | TGI (HT29 colon) [µM] | TGI (SK-MEL-28 melanoma) [µM] | TGI (K-562 leukemia) [µM] | TGI (MDA-MB-231 breast) [µM] | TGI (HCT-116 colon) [µM] | TGI (NCI-H226 lung) [µM] | TGI (IGROV1 ovarian) [µM] | TGI (NCI-H460 lung) [µM] | TGI (RPMI-8226 leukemia) [µM] | TGI (OVCAR-5 ovarian) [µM]
1 | COc1cc(N(CCC#N)CCC#N)ccc1/C(N=Nc1ccc(C)cc1)=N/NC(=O)c1cc(Br)ccc1O | > 100 | > 100 | > 100 | > 100 | 65.6 | 67.3 | > 100 | 25.2 | 65.6 | > 100 | 85.2 | > 100 | 55.2 | 41.2 | > 100 | 21.9 | 54.4 | > 100 | > 100
2 | Clc1ccccc1/C=C/c1nsc(/C=C/c2ccccc2Cl)n1 | 39.1 | > 100 | > 100 | > 100 | > 100 | > 100 | > 100 | > 100 | > 100 | > 100 | > 100 | 48.5 | > 100 | > 100 | > 100 | > 100 | 46.4 | 84.5 | > 100
3 | N#C/C(=C1\N=C(c2ccccc2O)Oc2ccccc21)c1ccc([N+](=O)[O-])cc1 | > 100 | > 100 | > 100 | > 100 | > 100 | > 100 | > 100 | > 100 | > 100 | > 100 | > 100 | > 100 | > 100 | > 100 | > 100 | > 100 | > 100 | > 100 | > 100
4 | COc1cc([C@@H]2c3cc4c(cc3[C@H](OC3OC5COC(C(C)C)OC5C(O)C3O)C3COC(=O)[C@@H]32)OCO4)cc(OC)c1O (some centres not stated) | 22.1 | 10.5 | 36 | 30.1 | 27.5 | 24.4 | 15.6 | > 100 | 17.2 | 11.1 | – | > 100 | 28.8 | 13.5 | 24 | 21.8 | 10.2 | 42.5 | 25
5 | O/N=c1/ccn(O)c2ccccc12 | 10.3 | 6.65 | 18.9 | 14.1 | 8.65 | 6.59 | 2.67 | 3.34 | 1.64 | 4.24 | 3.16 | > 19.9 | 5.4 | 11.3 | 7.14 | 5.12 | 3.67 | 0.542 | 14.7
6 | Cc1nc(-c2ccccc2)c(C)n2c1nc1ccccc12 | > 100 | > 100 | > 100 | > 100 | 47.9 | 54.8 | – | > 100 | 88.9 | > 100 | > 100 | > 100 | > 100 | > 100 | > 100 | > 100 | 63.3 | 40.6 | > 100
